Series [1] concerns LNCaP prostate carcinoma cells. In words: Antigen-specific CTL lysis, overnight 111In-release assay. In kind it is cell-based, human. The note with it: E:T=30:1. How it is done: (§1) Vorinostat and entinostat were obtained from Selleck Chemicals. Adherent tumor cells in log-growth phase were exposed daily to vehicle (DMSO) or vorinostat at the indicated concentrations for 5 h, over 4 consecutive days. At the end of each treatment, cells were washed in fresh medium and returned to incubation at 37° C. with 5% CO2. Alternatively, cells were continuously exposed to vehicle (DMSO) or entinostat at the indicated concentrations for 72 h.
(§2) Carcinoembryonic antigen (CEA)-specific CTLs recognize the CEA peptide epitope […] (CAP-1) (SEQ ID NO: 1) (Tsang et al., J. Natl. Cancer Inst., 87(13): 982-990 (1995)). Prostate-specific antigen (PSA)-specific CTLs recognize the PSA peptide epitope […] (SEQ ID NO: 2) (Correale et al., J. Natl. Cancer Inst., 89(4): 293-300 (1997)). The mucin-1 (MUC-1)-specific CD8^+ CTL line, designated MUC-1 CTL, recognizes the MUC-1 peptide epitope […] (SEQ ID NO: 3) (Tsang et al., Clin. Cancer Res., 10(6): 2139-2149 (2004)). Brachyury-specific CTLs recognize the brachyury peptide epitope […] (T-p2) (SEQ ID NO: 4) (Tucker et al., Cancer Immunol. Immunother., 63(12): 1307-1317 (2014)). All T-cell lines were HLA-A2-restricted.
Carcinoma cells exposed to vorinostat, entinostat, or vehicle (DMSO) were labeled with ^111In prior to being used as targets for direct lysis by effector CTLs at an effector-to-target ratio of 30:1 in a standard overnight cytotoxicity ^111In-release assay (Gameiro et al., Oncoimmunology, 3: e28643 (2014)).
The effect of clinically relevant vorinostat exposure on prostate and breast carcinoma cells' sensitivity to antigen-specific CTL-mediated lysis was examined. LNCaP and MDA-MB-231 were exposed to vorinostat or to vehicle as before, prior to being used as targets for antigen-specific CTL lysis, using CEA-, brachyury-, MUC-1-, or PSA-specific CD8^+ T cells as effector cells.

The subject of series [2] is ER stress response element (ERSE). In words: Luciferase ER stress reporter assay in LNCaP clones. It is filed as cell-based, human. The conditions noted are these: designated concentrations. The method, then:
as §1
In general terms: A reporter such as luciferase makes a cellular process visible.

For series [3], the system named is prostate and breast carcinoma cells. In words: NK cell mediated lysis of carcinoma cells. It is filed as cell-based, human. The conditions noted are these: after clinically relevant exposure. The method, then:
Human prostate (LNCaP), breast (MDA-MB-231), and lung (H460) carcinoma cells were exposed to vorinostat or vehicle (DMSO) and the percent lysis was determined. At the end of treatment, the cells were used as targets in a lysis assay wherein NK cells isolated from human PBMCs were used as effectors (varying E:T ratios as indicated in FIG. 7).

The subject of series [4] is non-small cell lung cancer (NSCLC). The conditions noted are these: entinostat given with the DNMT inhibitor azacitidine; subsequent therapies given immediately after epigenetic therapy; cited from earlier work.
Series [5] relates to HDAC enzymes (isoforms 1-11). In words: HDAC activity assay (EpiQuik colorimetric kit) on nuclear extracts of treated carcinoma cells. In kind it is cell-based, human. The conditions noted are these: 1 or 3 μM, 5 h daily over 4 days, at 96 h, vs DMSO. The method, then: (§3) Vorinostat and entinostat were obtained from Selleck Chemicals.
Changes in the nuclear enzyme activity of HDAC isoforms 1-11 following vorinostat treatment of MDA-MB-231 and LNCaP cells were determined using the colorimetric EpiQuik HDAC Activity/Inhibition Assay Kit (Epigentek). Briefly, 10 μg of extracted nuclear HDAC proteins were incubated with acetylated HDAC substrate for 90 min at 37° C. HDAC deacetylated products were detected following sequential incubation with capture and detection antibodies, according to the manufacturer's specifications.
(§4) Therefore, the in vitro effect of clinically relevant exposure of human prostate (LNCaP) and breast (MDA-MB-231) carcinoma cells to vorinostat on the activity of HDAC enzymes (isoforms 1-11), cellular proliferation, and viability was examined. Tumor cells were exposed daily for 5 h to 1 μM or 3 μM vorinostat, or vehicle (DMSO) over 4 consecutive days, mimicking the range of vorinostat exposure (Cmax, AUC) attained in cancer patients after oral once daily intake of 400 mg (Iwamoto et al., Cancer Chemother. Pharmacol., 72(3): 493-508 (2013)). […] Vorinostat concentration of 3 μM was used for all subsequent experiments.

Series [6] relates to LNCaP prostate carcinoma cells. In words: Cell growth and viability, trypan blue count / Live-Dead flow cytometry. In kind it is cell-based. The conditions noted are these: 1 or 3 μM, 5 h daily over 4 days. The method, then: as §1
(§5) Tumor cells were exposed to DMSO or vorinostat as described above. Cells were harvested daily and viable cells were counted by trypan blue exclusion using a Cellometer Auto T4 automated cell counter (Nexcelom Bioscience). Cellular viability was confirmed by flow cytometry using Live/Dead exclusion, according to manufacturer's instructions (Invitrogen).
as §4
A general note: A flow cytometer gives signals particle by particle.

Series [7] deals with MDA-MB-231 breast carcinoma cells. The series is described as above. In kind it is cell-based. The note with it: 1 or 3 μM, 5 h daily over 4 days. How it is done:
as §1, §5, §4

The test system is the same in series [8]. The conditions noted are these: brachyury-specific CTL, 3 μM. How it is done:
as §1
Carcinoembryonic antigen (CEA)-specific CTLs recognize the CEA peptide epitope […] (CAP-1) (SEQ ID NO: 1) (Tsang et al., J. Natl. Cancer Inst., 87(13): 982-990 (1995)). Prostate-specific antigen (PSA)-specific CTLs recognize the PSA peptide epitope […] (SEQ ID NO: 2) (Correale et al., J. Natl. Cancer Inst., 89(4): 293-300 (1997)). The mucin-1 (MUC-1)-specific CD8^+ CTL line, designated MUC-1 CTL, recognizes the MUC-1 peptide epitope […] (SEQ ID NO: 3) (Tsang et al., Clin. Cancer Res., 10(6): 2139-2149 (2004)). Brachyury-specific CTLs recognize the brachyury peptide epitope […] […]
Silencer® siRNA and negative control siRNA were used to silence HDAC1, ERN1, and PERK in MDA-MB-231 carcinoma cells, according to the manufacturer's instructions (Life Technologies). […] Detection and quantification of band intensity were performed with the Odyssey Infrared Imaging System (LI-COR Biotechnology). […]

The subject of series [9] is HLA-A2 negative AsPC-1 pancreatic carcinoma cells. The series can be described thus: Antigen-specific CTL lysis, HLA-restriction control. In kind it is cell-based, human. The conditions noted are these: cells exposed to vehicle or vorinostat 3 μM. How it is done: as §1
as §2, with “HLA-A2-restricted. […]” for “HLA-A2-restricted.”

Series [10] concerns antigen processing machinery (APM) components. The series can be described thus: Flow cytometry of APM components and surface markers in MDA-MB-231 cells. In kind it is cell-based, human. The method, then:
as §3
Cell-surface and intracytoplasmic staining was performed as previously described (Ogino et al., J. Immunol. Methods, 278(1-2): 33-44 (2003)). Surface staining of tumor cells was performed using the primary labeled monoclonal antibodies HLA-A2-FITC, ICAM-1 (CD54)-PE, CEA (CD66)-FITC, MUC-1 (CD227)-FITC, and the appropriate isotype-matched controls (BD Biosciences). For intracellular analysis of antigen processing machinery (APM) components, mouse IgG1 (MK2-23) isotype control, LMP2 (SY-1)-, LMP7 (HB2)-, TAP-1 (NOB1)-, calnexin (TO-5)-, β2-microglobulin (L368), and tapasin (TO-3)-specific monoclonal antibodies were developed and characterized as described (Bandoh et al., Tissue Antigens, 66(3): 185-194 (2005); Ogino et al., Tissue Antigens, 62(5): 385-393 (2003); and Wang et al., J. Immunol. Methods, 299(1-2): 139-151 (2005)). Cellular fluorescence of 3×10^4 cells was examined on a FACSCalibur flow cytometer using CellQuest software (BD Biosciences).
CTL killing of tumor targets requires T-cell recognition of specific major histocompatibility complex (MHC) Class I/CD8^+ restricted epitope complexes on the surface of tumor cells, an event determined by the cooperative interactions of multiple APM components. […] To test this hypothesis, MDA-MB-231 carcinoma cells were exposed to vorinostat or to vehicle as before. At the end of treatment, cells were examined by flow cytometry for intracellular expression of 6 APM components (FIG. 3).

Series [11] has as its system H460 lung carcinoma cells. In words: Avelumab (anti-PD-L1) mediated ADCC with NK effectors. In kind it is cell-based, human. The note with it: 3 μM, 5 h daily, 4 days, anti-PD-L1 vs isotype control. The method, then:
Lung (H460) and pancreatic (AsPC-1) carcinoma cells were exposed daily for 5 h to vorinostat (3 uM, black circles and bars) or DMSO (open circles and bars) for 4 consecutive days prior to being used as targets PDL-1-mediated ADCC. Upper panel: cell-surface expression of PDL1 in carcinoma targets. Middle panel: NK lysis in the presence of anti-PDL1 or isotype control Ab. Lower panel: H460 lysis in the presence of anti-PDL1 or isotype control antibodies using NK effector cells pre-incubated with anti-CD16 mAb. Results are presented as mean±S.E.M. from 3 replicate wells and are representative of 2-4 independent experiments. Asterisks denote statistical significance relative to controls (2-way ANOVA).
Human lung (H460) carcinoma cells were exposed to vorinostat and isotype control, anti-CD16, or anti-PD-L1 (avelumab).

Where [12] appears, read: MDA-MB-231, 3 μM, 96 h, intracellular flow cytometry.

Consider `Nc1ccccc1NC(=O)c1ccc(CNC(=O)OCc2cccnc2)cc1` [entinostat], for which the “sensitivity to CTL-mediated killing (PSA-specific CTL)” value in series [1] (entinostat 500 nM, similar to vorinostat 3 μM, P<0.05) is “increased sensitivity”. Also, the “activation of ERSE (firefly/renilla luciferase ratio normalized to DMSO)” value in series [2] (entinostat continuous exposure 72 h) is “activated ERSE in an exposure-dependent manner”. The “sensitivity to NK cell mediated lysis in vitro” value in series [3] is listed as “more sensitive”. Further, in [4], the “patients with major objective responses to subsequent anticancer therapies” value is on record as 4 out of 19.
As to `O=C(CCCCCCC(=O)Nc1ccccc1)NO` [vorinostat], the HDAC activity result in series [5] (LNCaP prostate carcinoma cells, P=0.0006) is “significantly decreased”. In [5] (MDA-MB-231 breast carcinoma cells, P=0.0046), the HDAC activity result is “significantly decreased”. Further, the cellular viability result in [6] (at 96 h) is listed as “no significant effect”. For the same compound, the cellular proliferation entry in series [6] (vs vehicle, P<0.0001) is “significantly decreased”. Moreover, in [7] (at 96 h), the cellular viability result is given as “no significant effect”. The cellular proliferation result in series [7] (vs vehicle, P<0.0001) is reported as “significantly decreased”. Also, in [1] (3 μM, 5 h daily, 4 days, P<0.0001), the “sensitivity to CTL-mediated lysis targeting MUC-1” value is given as “significantly more sensitive”. Moreover, the “sensitivity to CTL-mediated lysis targeting brachyury” value in series [1] (3 μM, 5 h daily, 4 days, P=0.0004) is “significantly more sensitive”. Also, the “sensitivity to CTL-mediated lysis targeting PSA” value in series [1] (3 μM, 5 h daily, 4 days, P=0.0011) is reported as “significantly more sensitive”. Besides, the “sensitivity to CTL-mediated lysis targeting CEA” value in [1] (3 μM, 5 h daily, 4 days, P=0.002) is listed as “significantly more sensitive”. Also, the “CTL lysis relative to vehicle control” value in series [8] (HDAC1-silenced cells) is “did not further increase”. Further, the “increase in CTL sensitivity relative to vehicle controls” value in series [8] (control siRNA, E:T 30:1, P=0.0024) is listed as 2 fold. Moreover, in [9], the “CTL lysis of HLA-A2 negative targets” value is “absence of significant lysis”. Moreover, in series [10] (setting [12]), the “increase in Tapasin expression” value came to 22%, the “increase in expression of LMP2” value is at least 25%, the “increase in expression of LMP7” value is at least 25% and the “increase in expression of TAP1” value is given as at least 25%. Also, in series [10] (setting [12]), the “increase in expression of calnexin” value was at least 25% and the “increase in expression of β2-microglobulin” value was at least 25%. In addition, in series [10] (upon exposure to vorinostat), the “expression of CEA on the surface of tumor cells” value is given as “Increased expression”, the “expression of HLA class I antigens on the surface of tumor cells” value is recorded as “Increased expression”, the “expression of ICAM-1 on the surface of tumor cells” value is listed as “Increased expression” and the “expression of MUC-1 on the surface of tumor cells” value is “Increased expression”. Also, the “activation of ERSE (firefly/renilla luciferase ratio normalized to DMSO)” value in [2] (vorinostat 5 h daily for 4 days) was “activated ERSE in a dose-dependent manner”. The “sensitivity to NK cell mediated lysis in vitro” value in series [3] was “more sensitive”. The “avelumab-mediated ADCC” value in series [11] was “increases”.

Source of the values: patent US20220040160A1, “COMBINATION OF HISTONE DEACETYLASE INHIBITOR AND IMMUNOTHERAPY” (The United States of America,as represented by the …, priority 2016, published 2022).
